Columns and labels:
Type in all cases: cell-based
Aβ42 [1] = assay: Screening for γ-secretase-modulating activity, Method 1: Aβ42 sandwich ELISA on SKNBE2 cell media; conditions: SKNBE2 cells carrying APP 695 wild type
Procedure, shortened: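 SKNBE2 cells expressing wild-type APP695 were treated with compound for 18 h in Ultraculture/1% glutamine. Secreted Aβ42 was quantified by sandwich ELISA (C-terminal capture, biotinylated 3D6, TMB, 450 nm), with WST-1 used as a toxicity check. IC50 was derived from 4-parameter fits of % inhibition or % of untreated control.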

Aβ42 [2] = assay: Screening for γ-secretase-modulating activity, Method 2: Aβ42 Alphalisa on SKNBE2 cell supernatant; conditions: Method 2, Table 3c, SKNBE2 cells carrying APP 695 wild type, overnight incubation
Procedure: (§1) Screening was carried out using SKNBE2 cells carrying the APP 695—wild type, grown in Dulbecco's Modified Eagle's Medium/Nutrient mixture F-12 (DMEM/NUT-mix F-12) (HAM) provided by Invitrogen (cat no. 10371-029) containing 5% Serum/Fe supplemented with 1% non-essential amino acids, 1-glutamine 2 mM, Hepes 15 mM, penicillin 50 U/ml (units/ml) en streptomycin 50 μg/ml. Cells were grown to near confluency.
(§2) The screening was performed using a modification of the assay as described in Citron et al (1997) Nature Medicine 3: 67. Briefly, cells were plated in a 384-well plate at 10^4 cells/well in Ultraculture (Lonza, BE12-725F) supplemented with 1% glutamine (Invitrogen, 25030-024), 1% non-essential amino acid (NEAA), penicillin 50 U/ml en streptomycin 50 μg/ml in the presence of test compound at different test concentrations. The cell/compound mixture was incubated overnight at 37° C., 5% CO2. The next day the media were assayed by two sandwich immuno-assays, for Aβ42 and Aβtotal.
(§3) Aβtotal and Aβ42 concentrations were quantified in the cell supernatant using the Aphalisa technology (Perkin Elmer). Alphalisa is a sandwich assay using biotinylated antibody attached to streptavidin coated donorbeads and antibody conjugated to acceptor beads. In the presence of antigen, the beads come into close proximity. The excitation of the donor beads provokes the release of singlet oxygen molecules that trigger a cascade of energy transfer in the acceptor beads, resulting in light emission. To quantify the amount of Aβ42 in the cell supernatant, monoclonal antibody specific to the C-terminus of Aβ42 (JRF/cAβ42/26) was coupled to the receptor beads and biotinylated antibody specific to the N-terminus of Aβ (JRF/AβN/25) was used to react with the donor beads. To quantify the amount of Aβtotal in the cell supernatant, monoclonal antibody specific to the N-terminus of Aβ (JRF/AβN/25) was coupled to the receptor beads and biotinylated antibody specific to the mid region of Aβ (biotinylated 4G8) was used to react with the donor beads.
(§4) To obtain the values reported in Table 3c, the data were calculated as percentage of the maximum amount of amyloid Beta 42 measured in the absence of the test compound. The sigmoidal dose response curves were analyzed using non-linear regression analysis with percentage of the control plotted against the log concentration of the compound. A 4-parameter equation was used to determine the IC50.

Aβtotal [3] = assay: Screening for γ-secretase-modulating activity, Method 2: Aβtotal Alphalisa on SKNBE2 cell supernatant; conditions: Method 2, Table 3c, SKNBE2 cells carrying APP 695 wild type, overnight incubation
Procedure: as §1, §2, §3, §4

Aβtotal [4] = assay: Screening for γ-secretase-modulating activity, Method 1: Aβtotal sandwich ELISA on SKNBE2 cell media; conditions: SKNBE2 cells carrying APP 695 wild type
Procedure, shortened: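 SKNBE2 cells expressing wild-type APP 695 were treated with compound for 18 hours. Aβtotal in the medium was measured by sandwich ELISA (6E10 capture, biotinylated 4G8 detection, fluorogenic peroxidase read-out). IC50 came from a 4-parameter fit of % inhibition with top/bottom fixed at 100/0 and Hill slope 1, or as averaged IC50 from % of untreated control.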

[5] = Table 3a, 18 hours, XLfit, top/bottom fixed to 100 and 0, hill slope 1
[6] = Table 3b, non-linear regression of % of control, averaged IC50 values
[7] = Homo sapiens, Table 3b, non-linear regression of % of control, averaged IC50 values
[8] = Homo sapiens, Table 3a, 18 hours, XLfit, top/bottom fixed to 100 and 0, hill slope 1

Row | SMILES | IC50 (Aβ42 [1]; [6]) [nM] | IC50 (Aβ42 [2]) [nM] | IC50 (Aβtotal [3]) [nM] | further results
1 | Cc1ncn(-c2ccc(Nc3cccc4c3nc(-c3ccc(F)cc3)n4C)cc2)n1 [Compound 103] | 89 | 102 | > 10000 | IC50 (Aβ42 [1]; [5]): 87 nM
2 | COc1cc(Nc2cccc3oc(C4CCN(C(C)=O)CC4)nc23)ccc1-n1cnc(C)c1 [Compound 41] | > 3000 | 7590 | > 10000 | IC50 (Aβ42 [1]; [5]): > 3000 nM; IC50 (Aβtotal [4]; [5]): > 3000 nM; IC50 (Aβtotal [4]; [6]): > 3000 nM
3 | COCCCc1cc(Nc2ccc(-n3cnc(C)n3)c(OC)c2)c2nc(-c3ccc(F)cc3)n(C)c2n1 [Compound 208] |  |  |  | IC50 (Aβ42 [1]; [7]): 35 nM; IC50 (Aβtotal [4]; [7]): > 3000 nM; IC50 (Aβ42 [2]; Homo sapiens): 91 nM; IC50 (Aβtotal [3]; Homo sapiens): > 10000 nM
4 | COc1nc(Nc2nc(C)cc3c2nc(-c2ccc(F)cc2)n3C)ccc1-n1cnc(C)c1 [Compound 150] | 437 | 145 | 4900 | IC50 (Aβtotal [4]; [6]): 6920 nM
5 | COc1nc(Nc2cccc3c2nc(-c2ccc(F)cc2)n3C(C)C)ccc1-n1cnc(C)c1 [Compound 116] | 10 | 4 | 6610 | 
6 | COc1cccc(-c2nc3c(Nc4ccc(-n5cnc(C)c5)c(OC)c4)cccc3n2C)c1 [Compound 49] | 28 | 13 | > 10000 | IC50 (Aβ42 [1]; [5]): 20 nM; IC50 (Aβtotal [4]; [5]): > 1000 nM; IC50 (Aβtotal [4]; [6]): > 3000 nM
7 | COc1cc(Nc2cccc3c2nc(-c2ccc(F)cc2)n3C(C)(C)C)ccc1-n1cnc(C)n1 [Compound 78] | < 110 | 100 | > 10000 | IC50 (Aβ42 [1]; [5]): < 110 nM; IC50 (Aβtotal [4]; [5]): > 3000 nM; IC50 (Aβtotal [4]; [6]): > 3000 nM
8 | COc1cc(Nc2cccc3c2nc(-c2ccc(F)cc2)n3C(C)C)ccc1-n1cnc(C)c1 [Compound 2] |  |  |  | IC50 (Aβ42 [1]; [8]): 12 nM; IC50 (Aβ42 [1]; [7]): 12 nM; IC50 (Aβtotal [4]; [8]): > 1000 nM; IC50 (Aβtotal [4]; [7]): > 1000 nM; IC50 (Aβ42 [2]; Homo sapiens): 9 nM; IC50 (Aβtotal [3]; Homo sapiens): 9330 nM
9 | COc1cccc(-c2nc3c(Nc4ccc(-n5cnc(C)n5)c(OC)c4)nc(C)cc3n2C)c1 [Compound 163] | 48 | 29 | 4270 | IC50 (Aβtotal [4]; [6]): > 3000 nM
10 | COc1cc(Nc2cccc3c2nc(CC2CCNCC2)n3C)ccc1-n1cnc(C)c1 [Compound 9] |  |  |  | IC50 (Aβ42 [1]; [8]): 600 nM; IC50 (Aβ42 [1]; [7]): 603 nM; IC50 (Aβtotal [4]; [8]): > 3000 nM; IC50 (Aβtotal [4]; [7]): > 3000 nM; IC50 (Aβ42 [2]; Homo sapiens): > 3000 nM; IC50 (Aβtotal [3]; Homo sapiens): > 3000 nM
11 | COc1cc(Nc2cccc3oc(C4CCN(C)CC4)nc23)ccc1-n1cnc(C)c1 [Compound 40] | 1950 | > 3000 | > 3000 | IC50 (Aβ42 [1]; [5]): 1950 nM; IC50 (Aβtotal [4]; [5]): > 3000 nM; IC50 (Aβtotal [4]; [6]): > 3000 nM
12 | Cc1ncn(-c2ccc(Nc3cc(C(F)(F)F)cc4c3nc(-c3ccc(F)cc3)n4C)cc2)n1 [Compound 69] | 117 | 417 | > 10000 | IC50 (Aβ42 [1]; [5]): 106 nM
13 | COc1cc(Nc2nccc3c2nc(CC2CC2)n3C)ccc1-n1ncnc1C [Compound 101] | > 3000 | 5890 | > 10000 | IC50 (Aβ42 [1]; [5]): > 3000 nM
14 | COc1cc(Nc2cncc3c2nc(-c2ccc(F)cc2)n3C)ccc1-n1cnc(C)n1 [Compound 158] |  | 166 | > 10000 | 
15 | COc1cc(Nc2cc(C)nc3c2nc(-c2ccc(F)cc2)n3C)ccc1-n1cnc(C)n1 [Compound 113] |  |  |  | IC50 (Aβ42 [2]; Homo sapiens): 35 nM; IC50 (Aβtotal [3]; Homo sapiens): > 10000 nM
16 | COc1nc(Nc2cccc3c2nc(-c2ccccc2F)n3C)ccc1-n1cnc(C)c1 [Compound 193] |  | 39 | 7080 | 
17 | COc1nc(Nc2cccc3c2nc(-c2ccc(F)c(F)c2)n3C)ccc1-n1cnc(C)c1 [Compound 175] |  | 21 | > 10000 | 

Row | SMILES | IC50 (Aβ42 [1]; [6]) [nM] | IC50 (Aβ42 [2]) [nM] | IC50 (Aβtotal [3]) [nM] | further results
18 | COc1ccc(-c2nc3c(Nc4ccc(-n5cnc(C)c5)c(F)c4)nc(C)cc3n2C)c(F)c1 [Compound 144] |  | 145 | > 10000 | 
19 | COc1cc(-c2nc3c(Nc4ccc(-n5cnc(C)c5)c(OC)n4)cccc3n2C)ccc1Cl [Compound 134] |  | 5 | 6920 | 
20 | Cc1cn(-c2ccc(Nc3nc(C)cc4c3nc(-c3ccc(F)c(Br)c3)n4C)cc2F)cn1 [Compound 155] |  | 8 | > 10000 | 
21 | COc1cc(-c2nc3c(Nc4ccc(-n5cnc(C)c5)c(OC)n4)cc(F)cc3n2C)ccc1Cl [Compound 140] |  | 4 | > 10000 | 
22 | Cc1cn(-c2ccc(Nc3nc(C)cc4c3nc(-c3cccnc3)n4C)cc2F)cn1 [Compound 143] |  | 550 | > 10000 | 
23 | Cc1cn(-c2ccc(Nc3cc(F)cc4c3nc(-c3ccc(F)cc3)n4C(C)C)cc2F)cn1 [Compound 125] |  | 26 | > 10000 | 
24 | COc1cc(F)cc(-c2nc3c(Nc4ccc(-n5cnc(C)c5)c(OC)n4)cccc3n2C)c1 [Compound 188] |  | 14 | 8320 | 
25 | COc1nc(Nc2cccc3c2nc(-c2ccccc2)n3C)ccc1-n1cnc(C)c1 [Compound 196] |  | 19 | 8510 | 
26 | COc1cc(Nc2cccc3c2nc(C2CCOCC2)n3C(C)C)ccc1-n1cnc(C)n1 [Compound 120] | > 3000 | 9770 | > 10000 | 
27 | Cc1cn(-c2ccc(Nc3cccc4c3nc(-c3ccc(=O)n(C)c3)n4C)cc2F)cn1 [Compound 124] |  | 3890 | > 10000 | 
28 | COc1cc(Nc2cccc3c2nc(C(C)c2ccc(Cl)cc2)n3C)ccc1-n1cnc(C)n1 (racemic) [Compound 122] |  | 372 | > 10000 | 
29 | COc1nc(Nc2cccc3c2nc(-c2ccc(F)c(C(F)(F)F)c2)n3C)ccc1-n1cnc(C)c1 [Compound 192] |  | 13 | 8910 | 
30 | COc1nc(Nc2cccc3c2nc(-c2ccc(N(C)C)cc2)n3C)ccc1-n1cnc(C)c1 [Compound 197] |  | 35 | 8230 | 
31 | Cc1ncn(-c2ccc(Nc3nccc4c3nc(-c3ccc(F)cc3F)n4C)c(F)c2)n1 [Compound 129] | > 3000 | > 10000 | > 10000 | 
32 | COc1cccc(-c2nc3c(Nc4ccc(-n5cnc(C)c5)c(OC)n4)cccc3o2)c1 [Compound 152] |  | 234 | 8130 | 
33 | COc1nc(Nc2cccc3c2nc(-c2ccc(F)cc2)n3C)ccc1-n1cnc(C)n1 [Compound 161] |  | 7 | > 10000 | 
34 | Cc1cn(-c2ccc(Nc3nc(C)cc4c3nc(-c3ccccc3Cl)n4C)cc2F)cn1 [Compound 139] |  | 35 | > 10000 | 

From patent publication US8772504B2, “Substituted benzoxazole, benzimidazole, oxazolopyridine and imidazopyridine derivatives as gamma secretase modulators” (Janssen Pharmaceuticals, Inc., priority 2009, dated 2014)
